Measurements taken from paper PMC10302146, “Dual Anta-Inhibitors Targeting Protein Kinase CK1δ and A2A Adenosine Receptor Useful in Neurodegenerative Disorders” (Molecules, 2023).

Columns and labels:
[1] = test system: N13 microglial cells; test: N13 cell viability, ligand pretreatment 60 min then CK cocktail 48 h (CK1δ inhibition protocol); assay type: cell-based; conditions: for cell vitality: CK cocktail alone 69% ± 0.3 vs. control
[2] = test system: N13 microglial cells; test: N13 cell viability (CellTiter 96 AQueous One, MTS), ligands alone; assay type: cell-based; conditions: for cell viability: 60 min, alone
Description: Starting from these observations, since this double effect could be a suitable strategy for the treatment of chronic neurodegenerative diseases, in which neuroinflammation plays a crucial role, these compounds were tested on an in vitro model of neuroinflammation in comparison with the reference compounds. The experiments were performed using N13 microglial cells. The colorimetric method CellTiter 96® AQueous One Solution Cell Proliferation assay was used to determine the number of live cells in cytotoxicity or proliferation assays. The tetrazole compound MTS was bio-reduced by the cells into formazan, a colored product soluble in the cellular medium. The percentage of cell viability was analyzed through an absorbance reading at 492 nm. The concentrations of ligands were chosen based on the results of binding assays. Specifically, lower, similar, and higher concentrations than the Ki value were used.
Experiments were performed in triplicate.

[3] = test system: N13 cell line; test: Griess assay, nitrite production (antioxidant effect); assay type: cell-based; conditions: compound 2 4500 nM, ZM241385 10 nM
Description: In addition, since oxidative stress has received extensive attention as one important entry point in the pathogenesis of neurodegenerative diseases, the potential antioxidant profile of compounds 1 and 2 was investigated. Oxidative stress and neuroinflammation play synergistic roles in the promotion of neurodegenerative disease progression. During a CNS insult, there is an activation of microglial cells, which stimulate immune responses to instigate tissue repair. If the triggering cause of the immune response is eradicated, the immune response resolves, but if the initial stress persists, it will lead to an overproduction of neurotoxic factors such as chemokines and proinflammatory cytokines such as Tumor Necrosis Factor-α (TNF-α) and Interleukin-1β (IL-1β). This pathological state will lead to an overproduction of ROS and a state of oxidative stress. High levels of ROS inactivate or damage proteins, leading to cellular degeneration and death. Furthermore, ROS can activate proinflammatory pathways, further promoting a harmful environment for vulnerable neurons. In light of this, the potential antioxidant capacity of compounds was studied. […] The combination of anti-inflammatory and antioxidant activities makes compound 2 particularly appealing in counteracting two of the factors involved in the pathogenesis of neurodegenerative pathologies.
The N13 cell line was introduced into a 96-well UV-VIS transparent plate at a population of 1 × 10^4 cells per well in 98 μL of DMEM and incubated overnight. […] After 24 h of incubation, the media from each well was transferred into another 96-well plate, and then 50 µL of the sulphanilamide solution was placed into the wells. After 10 min of incubation at room temperature (rt), 50 µL of the NED solution was dispensed to all wells, and the plate was incubated at rt for an additional 5–10 min. After half an hour, absorbance was measured in the microplate reader GENiosPro using a 520–550 nm filter. All measurements were reproduced in 3–5 replicates. The nitric oxide formation was investigated by measuring nitrite (NO^2−), which is one of two primary breakdown products of NO. A nitrite standard reference curve was used for quantitative evaluation of the concentration of NO^2− in samples.

[4] = molecular target: human recombinant A3AR; set-up: method as in PMID 37259317; conditions: [3H]HEMADO, membranes from CHO cells stably transfected; means ± standard errors; read-out: KiA3; cited from earlier work
[5] = test system: CK1δ; set-up: method as in PMID 37259317; conditions: cited from earlier work; for IC50: enzymatic inhibition
[6] = test system: N13 microglial cells; test: N13 cell viability, CK cocktail 48 h pretreatment then ligand (A2AAR antagonist protocol); conditions: 60 min
Description: Given the nature of compounds, dual A2A/CK1δ anta-inhibitors, their neuroprotective effect against a neuroinflammatory insult was investigated following two different approaches aimed at studying the antagonist activity on the A2AAR and the inhibitor effect on CK1δ. […] The concentrations used were 35, 65, and 400 µM at 60 min of incubation.
N13 cells were plated in 96-well plates at the confluence of 1 × 10^4 cells/well and incubated overnight. Cells were divided into two groups in order to study the activity of compounds on A2AAR and CK1δ (Scheme 1). […] Cells of the second group were pretreated with 2 µL at different concentrations of understudy ligand, or the reference compound PF670462, for 30 or 60 min and then with further addition of a proinflammatory cocktail of cytokines for 48 h (Scheme 1). After treatment, 20 µL of CellTiter 96® AQueous One Solution Reagent was added to each well to a final volume of 100 µL. After 1 h of incubation, absorbance was measured at 492 nm in the microplate reader GENiosPro. Cell viability was estimated as the relation between the OD of treated cells and the OD of untreated cells in percentage. An untreated control and a control with the solvent were run. Experiments were performed in triplicate.

[7] = molecular target: human recombinant A1AR; set-up: method as in PMID 37259317; conditions: [3H]CCPA, membranes from CHO cells stably transfected; means ± standard errors; read-out: KiA1; cited from earlier work
[8] = molecular target: human recombinant A2AAR; set-up: method as in PMID 37259317; conditions: cited from earlier work; for Ki: [3H]NECA, membranes from CHO cells stably transfected, means ± standard errors, read-out: KiA2A

## Nc1nccc(-c2c(-c3ccc(F)cc3)ncn2C2CCCCC2)n1 [PF-670462, reference compound]
[1]; 0.05 µM 60 min before CK cocktail 48 h
  cell vitality: 96% ± 3.1
[1]; 0.1 µM 60 min before CK cocktail 48 h
  cell vitality: 78% ± 3.5
[1]; 1 µM 60 min before CK cocktail 48 h
  cell viability: no significant decrease in cell viability
[2]; 0.05 µM
  cell viability: does not affect cell viability
[2]; 0.1 µM
  cell viability: 75% ± 1.4
[2]; 1 µM
  cell viability: 60% ± 2.9

## Nc1nc(NCCc2ccc(O)cc2)nc2nc(-c3ccco3)nn12 [ZM241385, reference compound]
[3]
  compensation of oxidative stress caused by the CK cocktail: successfully compensated
[2]; 0.01 µM, absence of CK cocktail (reference used at 60 min)
  cell viability vs. control: 155% ± 1.9

## N#CCNc1nc(Cl)nc2c1ncn2C1CCCC1 [compound 3, 2-((2-Chloro-9-cyclopentyl-9H-purin-6-yl)amino)acetonitrile]
[4]
  Ki: 0.14 ± 0.035 µM
[5]
  % Residual Activity at 40 μM ± sd: 86 ± 1.6%
  CK1δ inhibition, in words: inactive as a CK1δ inhibitor
  IC50: > 40 µM
[6]; 400 µM, after CK cocktail (Figure 3)
  cell vitality increase up to: 93 ± 1.1%
[6]; 35, 65 and 400 µM, after CK cocktail
  counteraction of CK cocktail effect (cell viability): able to counteract the effect of the CK cocktail but to a lesser extent than compound 2
[7]
  Ki: 0.118 ± 0.01 µM
[8]
  Ki: 0.007 ± 1e-05 µM

## Nc1nc(Cl)nc2c1nc(-c1ccco1)n2C1CCCC1 [compound 4, 2-chloro-9-cyclopentyl-8-(furan-2-yl)-9H-purin-6-amine]
[1]; N13, 25 µM 60 min before CK cocktail 48 h, CK cocktail alone 78% 1.3 vs. control (Figure 7)
  viability at 25 µM: 108%
[1]; N13, 50 µM 60 min before CK cocktail 48 h, CK cocktail alone 78% 1.3 vs. control
  viability at 50 µM: 102%
[1]; N13, 500 µM 60 min before CK cocktail 48 h, CK cocktail alone 78% 1.3 vs. control
  viability at 500 µM: 90%
[4]
  Ki: 5.96 ± 1.02 µM
[5]; 10 μM
  % Residual Activity at 10 μM ± sd: 13 ± 24%
[5]
  % Residual Activity at 40 μM ± sd: 25 ± 9.6%
  IC50: 0.36 ± 0.1 µM
[7]
  Ki: 8.66 ± 1.52 µM
[8]
  Ki: 3.48 ± 0.312 µM
  A2AAR antagonism, in words: inactive as an A2AAR antagonist
